Assay results taken from US10100050B2 (CHIESI FARMACEUTICI S.P.A., priority 2015, dated 2018).
Where a name gives a salt, the structure may show the parent alone.

Assays:
p38alpha = target: T1, p38alpha (Homo sapiens, UniProt Q16539); assay: P38alpha enzyme inhibition assay (Alphascreen kinase activity assay); type: biochemical; conditions: IC50 classes; 2 hours preincubation at 25° C., 250 μM ATP; read-out: p38α inhibition
T1 construct: purchased Invitrogen PV3304
Method: P38alpha Enzyme Inhibition Assay
The inhibitory activity of compounds was determined using an Alphascreen® (Perkin Elmer) based kinase activity assay. Kinase reactions consisted of 25 mM HEPES pH 7.5, 10 mM MgCl2, 100 μM Na3VO4, 2 mM DTT, 0.05 mg/ml Tween […] (Invitrogen, PV3304), 1% DMSO and 0.3 μg/ml ATF-2 fusion protein (New England Biolabs, 9224). Compounds were incubated under these conditions for 2 hours, at 25° C., prior to the initiation of the kinase activity by the addition of the 250 μM ATP. Reaction volumes were 20 uL. After 1 hr at 25° C. reactions were stopped by the adding 10 uL of 25 mM HEPES pH 7.5 containing 62.5 mM EDTA, 0.05% Triton X-100, 10% BSA and 0.83 ng/uL anti-phospho-ATF2 antibody (Abcam, ab28812). Detection was performed by measuring luminescence following the addition of Alphascreen Donor beads (Perkin Elmer 6765300) and Protein A Alphascreen Acceptor beads (Perkin Elmer 6760137), both at a final concentration of 20 ug/ml. IC50 values were determined from concentration-response curves.

[1] = system: Peripheral Blood Mononuclear Cells (PBMCs); assay: LPS-stimulated PBMC TNFα release assay; type: cell-based; conditions: IC50 classes; human PBMC, LPS 10 ng/ml, 18 h; read-out: LPS-stimulated PBMC TNFα release inhibition
Method: 1-10 nM ‘+’; • <1 nM ‘++’ LPS-Stimulated PBMC TNFα Release Assay
Peripheral Blood Mononuclear Cells (PBMCs) were isolated from healthy human volunteer blood using a standard density gradient centrifugation technique. Citrated blood was placed onto Histopaque™ and centrifuged. The PBMCs were removed from the density gradient interface and washed in phosphate buffered saline (PBS). The PBMCs were suspended in RPMI 1640 medium (without serum), dispensed into a 96-well plate and incubated at 37° C. for 3 h in a humidified incubator. After incubation, the medium was replaced (with medium containing 1% foetal bovine serum) and the plate incubated at 37° C., for 1 h, in the presence of test compound or the appropriate vehicle. LPS (10 ng/ml), or an appropriate vehicle control, was then added to the cells and the plate returned to the incubator for 18 h. Cell-free supernatants were removed and assayed for TNFα levels using MSD plates on the Sector Imager 6000 (MesoScale).
A dose response curve to each test compound was performed and the effect of compound in each experiment was expressed as a percentage inhibition of the control TNFα release. Dose response curves were plotted and compound potency (IC50) was determined. Compounds were tested in at least three separate experiments.

T1 sequence (Q16539 whole entry): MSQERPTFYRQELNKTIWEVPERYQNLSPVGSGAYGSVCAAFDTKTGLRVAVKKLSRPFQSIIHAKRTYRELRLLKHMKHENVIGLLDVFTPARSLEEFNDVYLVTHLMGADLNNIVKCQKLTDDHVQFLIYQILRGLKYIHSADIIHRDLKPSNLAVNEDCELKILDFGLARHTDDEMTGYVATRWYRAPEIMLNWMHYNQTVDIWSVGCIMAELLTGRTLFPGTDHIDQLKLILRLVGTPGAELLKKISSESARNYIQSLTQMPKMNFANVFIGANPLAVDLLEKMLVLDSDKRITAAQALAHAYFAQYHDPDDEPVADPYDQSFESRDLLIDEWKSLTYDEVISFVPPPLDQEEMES

SMILES | IC50 (p38alpha) [nM] | IC50 [1] [nM]
COc1c(NC(=O)N[C@H]2CC[C@@H](Oc3ccc4nnc([C@@H]5CCCN5C)n4c3)c3ccccc32)cc(C(C)(C)C)cc1N(CCO)S(C)(=O)=O [Example 17, N-[5-tert-Butyl-2-methoxy-3-(3-{(1S,4R)-4-[3-((S)-1-methyl-pyrrolidin-2-1)-[1,2,4]triazolo[4,3-a]pyridin-6-yloxy]-1,2,3,4-tetrahydro-naphthalen-1-yl}-ureido)-phenyl]-N-(2-hydroxy-ethyl)-methanesulfonamide formate salt] | 1 to 10 | > 5
CN1CCC[C@H]1c1nnc2ccc(O[C@@H]3CC[C@H](NC(=O)Nc4cc(C(=O)NCCO)cc(C(C)(C)C)c4)c4ccccc43)cn12 [Example 50, 3-tert-Butyl-N-(2-hydroxy-ethyl)-5-(3-{(1S,4R)-4-[3-((S)-1-methyl-pyrrolidin-2-yl)-[1,2,4]triazolo[4,3-a]pyridin-6-yloxy]-1,2,3,4-tetrahydro-naphthalen-1-yl}-ureido)-benzamide] | < 1 | > 5
COC(=O)c1cc(NC(=O)N[C@H]2CC[C@@H](Oc3ccc4nnc([C@@H]5CCCN5C)n4c3)c3ccccc32)cc(C(C)(C)C)c1 [Example 40, 3-tert-Butyl-5-(3-{(1S,4R)-4-[3((S)-1-methyl-pyrrolidin-2-yl)-[1,2,4]triazolo[4,3-a]pyridin-6-yloxy]-1,2,3,4-tetrahydro-naphthalen-1-yl}-ureido)-benzoic acid methyl ester] | < 1 | 1 to 5
CN(C)C(C)(C)c1nnc2ccc(O[C@@H]3CC[C@H](NC(=O)Nc4cc(N)cc(C(C)(C)C)c4)c4ccccc43)cn12 [Example 34] | < 1 | < 1
CN1CCC[C@H]1c1nnc2ccc(O[C@@H]3CC[C@H](NC(=O)Nc4cc(C(N)=O)cc(C(C)(C)C)c4)c4ccccc43)cn12 [Example 52, 3-tert-Butyl-5-(3-{(1S,4R)-4-[3-((S)-1-methyl-pyrrolidin-2-yl)-[1,2,4]triazolo[4,3-a]pyridin-6-yloxy]-1,2,3,4-tetrahydro-naphthalen-1-yl}-ureido)-benzamide] | < 1 | 1 to 5
COc1c(NC(=O)N[C@H]2CC[C@@H](Oc3ccc4nnc(N5CCCCC5)n4c3)c3ccccc32)cc(C(C)(C)C)cc1N(CCN(C)C)S(C)(=O)=O [Example 60, N-(5-tert-Butyl-2-methoxy-3-{3-[(1S,4R)-4-(3-piperidin-1-yl-[1,2,4]triazolo[4,3,a]pyridin-6-yloxy)-1,2,3,4-tetrahydro-naphthalen-1-yl]-ureido}-phenyl-N-(2-dimethylamino-ethyl)-methanesulfonamide formate salt] | 1 to 10 | > 5

The next lines start with results.

IC50 (p38alpha) [nM] | SMILES | IC50 [1] [nM]
1 to 10 | CC(C)N1CCCC[C@H]1c1nnc2ccc(O[C@@H]3CC[C@H](NC(=O)Nc4cc(NS(C)(=O)=O)cc(C(C)(C)C)c4)c4ccccc43)cn12 [Example 23] | > 5
< 1 | CC(C)(C)c1cc(NC(=O)N[C@H]2CC[C@@H](Oc3ccc4nnc([C@]5(C)CCCN5)n4c3)c3ccccc32)cc(NS(C)(=O)=O)c1 [Example 29, N-[3-tert-Butyl-5-(3-{(1S,4R)-4-[3-((S)-2-methyl-pyrrolidin-2-yl)-[1,2,4]triazolo[4,3-a]pyridin-6-yloxy]-1,2,3,4-tetrahydro-naphthalen-1-yl}-ureido)-phenyl]-methanesulfonamide] | 1 to 5
< 1 | CN1CCC[C@@]1(C)c1nnc2ccc(O[C@@H]3CC[C@H](NC(=O)Nc4cc(N5CCOCC5)cc(C(C)(C)C)c4)c4ccccc43)cn12 [Example 48, 1-(3-tert-Butyl-5-morpholin-4-yl-phenyl)-3-{(1S,4R)-4-[3-((S)-1,2-dimethyl-pyrrolidin-2-yl)-[1,2,4]triazolo[4,3-a]pyridin-6-yloxy]-1,2,3,4-tetrahydro-naphthalen-1-yl}-urea] | < 1
< 1 | CC(C)(C)c1cc(NC(=O)N[C@H]2CC[C@@H](Oc3ccc4nnc([C@]5(C)CCCN5CCO)n4c3)c3ccccc32)cc(NS(C)(=O)=O)c1 [Example 32, N-{3-tert-Butyl-5-[3-((1S,4R)-4-{3-[(S)-1-(2-hydroxy-ethyl)-2-methyl-pyrrolidin-2-yl]-[1,2,4]triazolo[4,3-a]pyridin-6-yloxy}-1,2,3,4-tetrahydro-naphthalen-1-yl)-ureido]-phenyl}-methanesulfonamide] | 1 to 5
< 1 | CC(C)N1CCC[C@@]1(C)c1nnc2ccc(O[C@@H]3CC[C@H](NC(=O)Nc4cc(NS(C)(=O)=O)cc(C(C)(C)C)c4)c4ccccc43)cn12 [Example 28, N-[3-tert-Butyl-5-(3-{(1S,4R)-4-[3-((S)-1-isopropyl-2-methyl-pyrrolidin-2-yl)-[1,2,4]triazolo[4,3-a]pyridin-6-yloxy]-1,2,3,4-tetrahydro-naphthalen-1-yl}-ureido)-phenyl]-methanesulfonamide] | 1 to 5
1 to 10 | CN1CC(C)(C)C[C@H]1c1nnc2ccc(O[C@@H]3CC[C@H](NC(=O)Nc4cc(NS(C)(=O)=O)cc(C(C)(C)C)c4)c4ccccc43)cn12 [Example 26, N-[3-tert-Butyl-5-(3-{(1S,4R)-4-[3-((S)-1,4,4-trimethyl-pyrrolidin-2-yl)-[1,2,4]triazolo[4,3-a]pyridin-6-yloxy]-1,2,3,4-tetrahydro-naphthalenyl}-ureido)-phenyl]-methanesulfonamide] | 1 to 5
< 1 | CN1CCC[C@@H]1c1nnc2ccc(O[C@@H]3CC[C@H](NC(=O)Nc4cc(NS(C)(=O)=O)cc(C(C)(C)C)c4)c4ccccc43)cn12 [Example 22] | 1 to 5
1 to 10 | CN1CCC[C@@H](c2nnc3ccc(O[C@@H]4CC[C@H](NC(=O)Nc5cc(NS(C)(=O)=O)cc(C(C)(C)C)c5)c5ccccc54)cn23)C1 [Example 30, N-[3-tert-Butyl-5-(3-{(1S,4R)-4-[3-((R)-1-methyl-piperidin-3-yl)-[1,2,4]triazolo[4,3-a]pyridin-6-yloxy]-1,2,3,4-tetrahydro-naphthalen-1-yl}-ureido)-phenyl]-methanesulfonamide] | > 5
